This is an account of results in paper PMC10470909, “cis-Decalin-containing tetramic acids as inhibitors of insect steroidogenic glutathione S-transferase Noppera-bo” (PLOS ONE, 2023).

Entries after “also recorded” stand apart in the source; their conditions may differ. Where two headings read alike, the source gives them in different places. Bounds are passed on as bounds.

Series [1] has as its system Escherichia coli HO141. Nature of the series: Antimicrobial assay, E. coli. Format: cell-based.
In series [2] the test system is Aspergillus fumigatus Af293. Nature of the series: Antimicrobial assay, A. fumigatus. Format: cell-based.
A short description of series [3]: In vitro cytotoxicity, src^ts-NRK. In kind it is cell-based, rat. As to conditions: rat; src^ts-NRK cells. On the procedure:
(§1) In vitro cytotoxicity and antimicrobial assays were conducted as previously reported.

The subject of series [4] is Pyricularia oryzae kita-1. Put plainly: microbe, parasite or virus in culture. As to conditions: for IC50: Pyricularia oryzae, KITA1, read-out: Antimicrobial activity (IC50, μM) Po. In kind it is cell-based.
Series [5] deals with Staphylococcus aureus 209. Put plainly: Antimicrobial assay, S. aureus. In kind it is cell-based.
For series [6], the system named is HIV-1 integrase. The arrangement: method as in earlier work. Particulars: cited from earlier work.
The nature of series [7]: In vitro cytotoxicity, HL-60. Particulars: human, HL-60 cells (human promyelocytic leukemia cell line). In kind it is cell-based. On the procedure: as §1
The subject of series [8] is mitochondrial respiration in HeLa cells. Nature of the series: Measurement of mitochondrial respiration (OCR/ECAR, Seahorse XFe96 extracellular flux analyzer). As to conditions: 6 min after sample treatment.
Method: Changes in oxygen consumption rate (OCR) and extracellular acidification rate (ECAR) were measured using a Seahorse XFe96 analyzer (Agilent, CA, USA).
To confirm this, the effect of 1 on energy metabolism was evaluated using an extracellular flux analyzer, which can simultaneously measure two metabolic properties: oxygen consumption rate (OCR) for an indicative of OXPHOS and extracellular acidification rate (ECAR) for that of glycolysis [20].
Percentage changes in OCR and ECAR (relative to their respective baseline values) induced by test compounds were calculated from S14 Fig. Each data point represents the mean ± standard deviation value at 6 min after sample treatment (n = 3). Note that decreasing OCR and increasing ECAR is a typical phenotype characteristic to mitochondrial respiration inhibitors [20].
Real-time measurements of the OCR and ECAR in HeLa cells were performed after treating the cells with different concentrations of the test samples. To perform the Seahorse XF Cell Mito Stress Test, the cells were treated with oligomycin A (OMA, 1 μM), FCCP (0.125 μM), and rotenone/antimycin A (R/A, 1 μM each) at the indicated times. Data are mean ± s.d. (n = 3 technical replicates) from one representative experiment out of three independent experiments.
The subject of series [9] is Plasmodium falciparum 3D7. Nature of the series: Antimalarial assay, P. falciparum. In kind it is cell-based.
The test system of series [10] is Candida albicans JCM1542. Put plainly: Antimicrobial assay, C. albicans. Format: cell-based.
Series [11] can be described thus: In vitro cytotoxicity, HeLa. In kind it is cell-based, human. Particulars: human, HeLa cells (human cervical epidermoid carcinoma cell line). On the procedure: as §1
For series [12], the system named is src^ts-NRK, normal rat kidney cells infected with ts25. Put plainly: In vitro cytotoxicity, src^ts-NRK. Format: cell-based. On the procedure:
as §1

Series [13] relates to HeLa, human cervical epidermoid carcinoma cell line. Put plainly: In vitro cytotoxicity, HeLa. In kind it is cell-based. Particulars: HeLa cells. The procedure:
as §1

The nature of series [14]: Solubility in solvents. Format: physicochemical. As to conditions: hexane, CHCl3, EtOAc, acetone, MeOH, MeCN, DMSO, or H2O. The procedure: Its molecular formula was determined as C24H31NO6 using HRESITOFMS.
Where [15] appears, read: Escherichia coli HO141, read-out: Antimicrobial activity (IC50, μM) Ec.
The mark [16] stands for this setting: Aspergillus fumigatus Af293, read-out: Antimicrobial activity (IC50, μM) Af.
Where [17] appears, read: Staphylococcus aureus 209, read-out: Antimicrobial activity (IC50, μM) Sa.
Where [18] appears, read: Plasmodium falciparum 3D7, read-out: Antimicrobial activity (IC50, μM) Pf.
Where [19] appears, read: Candida albicans JCM1542, read-out: Antimicrobial activity (IC50, μM) Ca.
[20] abbreviates: Escherichia coli, HO141, read-out: Antimicrobial activity (IC50, μM) Ec.
Where [21] appears, read: Aspergillus fumigatus, AF293, read-out: Antimicrobial activity (IC50, μM) Af.
The mark [22] stands for this setting: Staphylococcus aureus, 209, read-out: Antimicrobial activity (IC50, μM) Sa.
[23] abbreviates: Plasmodium falciparum, 3D7, read-out: Antimicrobial activity (IC50, μM) Pf.
Setting [24] is: Candida albicans, JCM1542, read-out: Antimicrobial activity (IC50, μM) Ca.

As to `C/C=C/[C@@H]1C=C[C@@H]2C[C@H](C)CC[C@H]2[C@]1(C)C(=O)C1=C(O)[C@H](CO)N(C)C1=O` [Compound 1, equisetin], the IC50 in [1] (setting [15]) amounted to 13 µM; in series [2] (setting [16]), 29 µM; in [3], 20 µM; in series [4], 0.15 µM; in series [5] (setting [17]), 1.4 µM; in [7], 12 µM. Besides, the figures for the concentration for half-maximal inhibition (IC50) in series [9] (setting [18]), in [10] (setting [19]) and in series [11] were 12 µM, 29 µM and 35 µM, respectively. The “HIV-1 integrase inhibitory activity (in words)” value in series [6] is recorded as “inhibit HIV-1 integrase activity approximately equally”. Further, the “change in extracellular acidification rate (ECAR)” value in series [8] is given as “increase in ECAR”. Moreover, the “change in oxygen consumption rate (OCR)” value in series [8] is listed as “decrease in OCR”.

Take `C/C=C/C=C/[C@H]1C(C)=C[C@H]2C[C@@H](C)CC[C@@H]2[C@@]1(C)C(=O)C1=C(O)[C@@H](CO)N(C)C1=O` [Compound 2, phomasetin]: the IC50 in series [1] (setting [20]) is 1.3 µM; in series [2] (setting [21]) it was 21 µM; in series [3], 11 µM; in [4] it was 0.044 µM; in [5] (setting [22]) it was 0.14 µM; in [7], 3.4 µM. For the same compound, the figures for the IC50 in series [9] (setting [23]), in series [10] (setting [24]) and in series [11] were 1.8 µM, 21 µM and 6.1 µM, respectively. For the same compound, the “HIV-1 integrase inhibitory activity (in words)” value in series [6] is listed as “inhibit HIV-1 integrase activity approximately equally”.

For the compound `C/C=C/[C@H]1C=C[C@H]2C[C@H](C)CC[C@H]2[C@]1(C)C(=O)C1=C(O)[C@H](CO)N(C)C1=O` [Compound 3, cis-equisetin], the IC50 in series [1] (setting [15]) turned out to be 20 µM; in series [2] (setting [16]) it was 40 µM; in [3], 35 µM; in [4], 0.46 µM; in series [5] (setting [17]), 5.6 µM; in series [7], 14 µM. For the same compound, the IC50 was 13 µM in series [9] (setting [18]), 40 µM in series [10] (setting [19]) and 46 µM in [11]. In addition, the “fold lower activity compared with that of 1, P. oryzae” value in series [4] (growth inhibitory activity against P. oryzae, relative to 1) was determined as 3 fold. Also, in series [5] (growth inhibitory activity against S. aureus, relative to 1), the “fold lower activity compared with that of 1, S. aureus” value turned out to be 4 fold.

Consider `C/C=C/C=C/[C@@H]1C(C)=C[C@@H]2C[C@@H](C)CC[C@@H]2[C@@]1(C)C(=O)C1=C(O)[C@@H](CO)NC1=O` [Compound 4, N-demethyl-cis-phomasetin], for which the IC50 in series [1] (setting [20]) was 1.5 µM; in series [2] (setting [21]), 58 µM; in series [3], greater than 75 µM; in [4], 2 µM; in series [5] (setting [22]) it was 6 µM; in series [7], 22 µM. Besides, the IC50 in [9] (setting [23]) was 13 µM; in [10] (setting [24]), 9 µM; in series [11], greater than 75 µM. Also, in series [12], the “cytotoxicity against src^ts-NRK (in words)” value is reported as “no cytotoxicity”. Moreover, the “cytotoxicity against HeLa (in words)” value in [13] is “no cytotoxicity”.

As for `C/C=C/C=C/[C@H]1C(C)=C[C@H]2C[C@@H](C)CC[C@@H]2[C@@]1(C)C(=O)C1=C(O)[C@@H](CO)NC1=O` [Compound 5, N-demethylphomasetin], the IC50 worked out at 2.5 µM in series [1] (setting [20]); 9.8 µM in [2] (setting [21]); 63 µM in series [3]; 1.3 µM in series [4]; 0.2 µM in [5] (setting [22]); 11 µM in [7]. The results for the IC50 in [9] (setting [23]), in [10] (setting [24]) and in series [11] were 4.8 µM, 3.8 µM and 40 µM, respectively.

Regarding `C/C=C/C=C/[C@@H]1C(C)=C[C@@H]2C[C@@H](C)CC[C@H]2[C@]1(C)C(=O)C1=C(O)C(CO)NC1=O` (some centres unmarked) [Compound 6], the half-inhibitory concentration (IC50) was greater than 70 µM in series [1] (setting [20]); greater than 70 µM in [2] (setting [21]); greater than 70 µM in series [3]; 5.5 µM in series [4]; 3.8 µM in [5] (setting [22]); 12 µM in series [7]. The values for the half-inhibitory concentration (IC50) in series [9] (setting [23]), in [10] (setting [24]) and in series [11] were 23 µM, 65 µM and greater than 70 µM, respectively.

Take `CC1=C[C@H]2C[C@@H](C)CC[C@@H]2[C@@](C)(C(=O)C2=C(O)[C@@H](CO)N(C)C2=O)[C@H]1/C=C/C=C/CO` [Compound 7]: the IC50 in series [1] (setting [20]) was 21 µM; in series [2] (setting [21]), greater than 70 µM; in [4] it was 12 µM; in series [5] (setting [22]), 1.4 µM; in series [7] it was 22 µM; in [9] (setting [23]), 4.7 µM. The IC50 in series [10] (setting [24]) was greater than 70 µM; in series [11] it was 28 µM.

As to `CC1=C[C@@H]2C[C@@H](C)CC[C@@H]2[C@@](C)(C(=O)C2=C(O)[C@@H](CO)NC2=O)[C@@H]1/C=C/C=C/C(=O)O` [Compound 8], the IC50 is 28 µM in series [1] (setting [20]); greater than 70 µM in series [2] (setting [21]); greater than 70 µM in series [3]; greater than 70 µM in series [4]; 63 µM in series [5] (setting [22]); greater than 70 µM in series [7]. For the same compound, the values for the IC50 in series [9] (setting [23]), in [10] (setting [24]) and in series [11] were 26 µM, greater than 70 µM and greater than 70 µM, respectively. In addition, in series [14], the “solubility (in words)” value is on record as “not soluble in any solvent; also recorded: too low”.

Broadly, the IC50 is the point on the concentration scale where inhibition reaches its midpoint.
